Experimental data reported in patent publication US20160076075A1 (priority 2014, published 2016).

Columns and labels:
[1] = system: IMCSzyme™ (recombinant glucuronidase); assay: IMCSzyme hydrolysis of opiate glucuronides; type: biochemical; details: for Cleavage in the presence of the IMCSzyme (in words): compared with planar THCA-glucuronide
[2] = system: IMCSzyme™ (recombinant glucuronidase); type: biochemical
[3] = system: IMCSzyme™ (recombinant glucuronidase); assay: IMCSzyme hydrolysis of THCA glucuronide with and without water miscible organic media; type: biochemical
Method: To a 10 mL volumetric flask add 5 mL of 0.2M Sodium Phosphate buffer pH 7.5. Then add 1.0 mL of IMCS enzyme. QS to the line with 0.2M phosphate buffer, cap and invert several times to mix well. Final enzyme concentration is 5000 U.
To a 10 mL volumetric flask add 6 mL of 50/50 ACN/MeOH. Add […] of THCA D9 100 μg/mL. Then add 1.0 mL of IMCS enzyme stock (>5000 U). QS to the line with 0.2M sodium phosphate buffer. Final enzyme concentration is 5000 U.
In a 10 mL volumetric flask add 6 mL of 50/50 ACN/MeOH. Add 25 μL of THCA D9 (100 μg/mL). QS to the line with DI water, cap and invert several times to mix well. Concentration of IS will be 250 ng/mL.
(§1) To a 10 mL volumetric flask add 1 mL ACN. Add 18.5 μL of 10 μg/mL THCA Glucuronide working solution adjusted to allow quantitation of THCA at 18.5 ng/mL post hydrolysis. QS to line with NHU.
Pipet 50 μL sample into a 750 μL autosampler vial. Pipet 50 μL of prepared enzyme into vial (this will yield 500 U in final 500 μL volume) and wait 5, 10, 15, and 20 minutes. Then pipet 400 μL of THCA D9 IS into the vial. Vortex and move to instrument.
Pipet 50 μL sample into a 750 μL, autosampler vial. Then pipet 450 μL, of Enzyme Stock Solution With Organic (see above) into vial. Wait 5, 10, 15, and 20 minutes. Vortex and move to instrument.

[4] = Hydrolysis of THCA glucuronide at 65° C. with no enzyme; type: physicochemical; details: for No Enzyme (% Hydrolysis): 65° C.
Method: as §1
(§2) Pipet 50 μL sample into a 750 μL autosampler vial. Pipet 50 μL of prepared enzyme into vial (this will yield 500 U in final 500 μL volume). Vortex and heat 15, 30, 45, and 60 minutes. Then pipet 400 μL of THCA D9 IS into vial. Vortex and move to instrument.
In the presence of enzyme, the THCA glucuronide is hydrolyzed completely by 15 min.

[5] = system: Red Abalone beta-glucuronidase (Kura Biotec); assay: Red Abalone beta-glucuronidase hydrolysis of THCA glucuronide; type: biochemical; details: for Enzyme + Organic Solvent(s) (% Hydrolysis) / Enzyme (% Hydrolysis): 65° C.; for Enzyme + Organic Solvent(s) (% Hydrolysis): ACN/MeOH; for Enzyme (% Hydrolysis): without organic
Method: To a 10 mL volumetric flask add 5 mL of DI water. Then add 1.0 mL of Kura Biotec enzyme. QS to the line with DI water, cap and invert several times to mix well. Final enzyme concentration is 5000 U.
In a 10 mL volumetric flask add 6 mL of 50/50 ACN/MeOH. Add 25 μL of THCA D9 100 μg/mL. Then add 1.0 mL of IMCS enzyme. QS to the line with DI water. Final enzyme concentration is 5000 U.
To a 10 mL volumetric flask add 6 mL of 50/50 ACN/MeOH. Add 25 μL of THCA D9 (100 μg/mL). QS to the line with DI water, cap and invert several times to mix well. Concentration of IS will be 250 ng/mL.
as §1, §2
Pipet 50 μL sample into a 750 μL autosampler vial. Then pipet 450 μL of Enzyme Stock Solution With Organic (see above) into vial. Vortex and heat 15, 30, 45, and 60 minutes. Vortex and move to instrument.

With CN1CC[C@]23c4c5ccc(O[C@@H]6O[C@H](C(=O)O)[C@@H](O)[C@H](O)[C@H]6O)c4O[C@H]2[C@@H](O)C=C[C@H]3[C@H]1C5 [Morphine-3-Glucuronide] the “Mean % Hydrolysis” value ([1]; 55° C., 0 min) was 99.5%, the “Mean % Hydrolysis” value ([1]; 55° C., 15 min) was 99.1% and the “Mean % Hydrolysis” value ([1]; 55° C., 30 min) was 99.1%. The “Mean % Hydrolysis” value ([1]; 55° C., 45 min) was 97.4%, the “Mean % Hydrolysis” value ([1]; 55° C., 60 min) was 99.9% and the “Mean % Hydrolysis” value ([1]; 65° C., 0 min) was 99.5%. The “Mean % Hydrolysis” value ([1]; 65° C., 15 min) was 95.9%, the “Mean % Hydrolysis” value ([1]; 65° C., 30 min) was 95.8% and the “Mean % Hydrolysis” value ([1]; 65° C., 45 min) was 97.9%. For the same compound, the “Mean % Hydrolysis” value ([1]; 65° C., 60 min) was 97.6%.
For CN1CC[C@]23c4c5ccc(O[C@@H]6O[C@H](C(=O)O)[C@@H](O)[C@H](O)[C@H]6O)c4O[C@H]2C(=O)CC[C@@]3(O)[C@H]1C5 [Oxymorphone Glucuronide], the “Mean % Hydrolysis” value ([1]; 55° C., 0 min) was 43.6%, the “Mean % Hydrolysis” value ([1]; 55° C., 15 min) was 71.7% and the “Mean % Hydrolysis” value ([1]; 55° C., 30 min) was 90.5%. For the same compound, the “Mean % Hydrolysis” value ([1]; 55° C., 45 min) was 97.0%, the “Mean % Hydrolysis” value ([1]; 55° C., 60 min) was 101.2% and the “Mean % Hydrolysis” value ([1]; 65° C., 0 min) was 43.6%. For the same compound, the “Mean % Hydrolysis” value ([1]; 65° C., 15 min) was 76.2%, the “Mean % Hydrolysis” value ([1]; 65° C., 30 min) was 89.7% and the “Mean % Hydrolysis” value ([1]; 65° C., 45 min) was 95.6%. The “Mean % Hydrolysis” value ([1]; 65° C., 60 min) was 100.0%.
In the case of CN1CC[C@]23c4c5ccc(O[C@@H]6O[C@H](C(=O)O)[C@@H](O)[C@H](O)[C@H]6O)c4O[C@H]2C(=O)CC[C@H]3[C@H]1C5 [Hydromorphone Glucuronide], the “Mean % Hydrolysis” value ([1]; 55° C., 0 min) is reported as 58.5%, the “Mean % Hydrolysis” value ([1]; 55° C., 15 min) is reported as 80.5% and the “Mean % Hydrolysis” value ([1]; 55° C., 30 min) is reported as 91.1%. The “Mean % Hydrolysis” value ([1]; 55° C., 45 min) was 93.3%, the “Mean % Hydrolysis” value ([1]; 55° C., 60 min) was 93.8% and the “Mean % Hydrolysis” value ([1]; 65° C., 0 min) was 58.5%. For the same compound, the “Mean % Hydrolysis” value ([1]; 65° C., 15 min) was 77.1%, the “Mean % Hydrolysis” value ([1]; 65° C., 30 min) was 89.4% and the “Mean % Hydrolysis” value ([1]; 65° C., 45 min) was 91.0%. For the same compound, the “Mean % Hydrolysis” value ([1]; 65° C., 60 min) was 91.5%.
With CO[C@]12CC[C@@]3(C[C@@H]1[C@](C)(O)C(C)(C)C)[C@H]1Cc4ccc(O[C@@H]5O[C@H](C(=O)O)[C@@H](O)[C@H](O)[C@H]5O)c5c4[C@@]3(CCN1CC1CC1)[C@H]2O5 [Buprenorphine Glucuronide] the “Cleavage by the recombinant enzyme (in words)” value [2] was “rapidly cleaves”.
In the case of CCCCCc1cc(O)c2c(c1)OC(C)(C)C1CCC(C(=O)OC3OC(C(=O)O)C(O)C(O)C3O)=CC21 (centres unmarked) [THCA Glucuronide], the “Mean % Hydrolysis” value ([3]; Enzyme added and incubated, then organic media added, 5 min at 55° C.) is reported as 89.2%, the “Mean % Hydrolysis” value ([3]; Enzyme added and incubated, then organic media added, 5 min at 65° C.) is reported as 90.1% and the “Mean % Hydrolysis” value ([3]; Enzyme and organic media added at same time, 5 min at Room Temp) is reported as 110.2%. The “Mean % Hydrolysis” value ([3]; Enzyme and organic media added at same time, 10 min at Room Temp) was 101.7%, the “Mean % Hydrolysis” value ([3]; Enzyme and organic media added at same time, 15 min at Room Temp) was 104.9% and the “Recombinant enzyme hydrolysis (in words)” value ([3]; room temperature, time to fill the 96-well plate (~15 min using robotics)) was “complete”. For the same compound, the “No Enzyme (% Hydrolysis)” value ([4]; 15 min) was 0.03%, the “No Enzyme (% Hydrolysis)” value ([4]; 30 min) was 0.03% and the “No Enzyme (% Hydrolysis)” value ([4]; 45 min) was 0.03%. The “No Enzyme (% Hydrolysis)” value ([4]; 60 min) was 0.03%, the “Hydrolysis in the absence of enzyme (in words)” value ([4]; elevated temperature) was “no hydrolysis” and the “Enzyme + Organic Solvent(s) (% Hydrolysis)” value ([5]; 15 min) was 121%. The “Enzyme (% Hydrolysis)” value ([5]; 15 min) was 104%, the “Enzyme + Organic Solvent(s) (% Hydrolysis)” value ([5]; 30 min) was 130% and the “Enzyme (% Hydrolysis)” value ([5]; 30 min) was 97%. The “Enzyme + Organic Solvent(s) (% Hydrolysis)” value ([5]; 45 min) was 134%, the “Enzyme (% Hydrolysis)” value ([5]; 45 min) was 102% and the “Enzyme + Organic Solvent(s) (% Hydrolysis)” value ([5]; 60 min) was 136%. The “Enzyme (% Hydrolysis)” value ([5]; 60 min) was 101%, the Hydrolysis ([5]; enzyme and 60% water miscible solvent, as early as 15 min) was 100% and the “Time by which hydrolyzed completely” value ([5]; in the presence of enzyme) was no more than 15 min.
For CN1CC[C@]23c4c5ccc(O)c4O[C@H]2[C@@H](O[C@@H]2O[C@H](C(=O)O)[C@@H](O)[C@H](O)[C@H]2O)C=C[C@H]3[C@H]1C5 [Morphine-6-Glucuronide], the “Mean % Hydrolysis” value ([1]; 55° C., 0 min) was 40.4%, the “Mean % Hydrolysis” value ([1]; 55° C., 15 min) was 67.9% and the “Mean % Hydrolysis” value ([1]; 55° C., 30 min) was 83.6%. The “Mean % Hydrolysis” value ([1]; 55° C., 45 min) was 95.9%, the “Mean % Hydrolysis” value ([1]; 55° C., 60 min) was 91.7% and the “Mean % Hydrolysis” value ([1]; 65° C., 0 min) was 40.4%. The “Mean % Hydrolysis” value ([1]; 65° C., 15 min) was 71.2%, the “Mean % Hydrolysis” value ([1]; 65° C., 30 min) was 88.3% and the “Mean % Hydrolysis” value ([1]; 65° C., 45 min) was 98.5%. The “Mean % Hydrolysis” value ([1]; 65° C., 60 min) was 97.9% and the “Cleavage in the presence of the IMCSzyme (in words)” value [1] was “take more time and heat to cleave”.
In the case of COc1ccc2c3c1O[C@H]1[C@@H](O[C@@H]4O[C@H](C(=O)O)[C@@H](O)[C@H](O)[C@H]4O)C=C[C@H]4[C@@H](C2)N(C)CC[C@@]341 [Codeine Glucuronide], the “Mean % Hydrolysis” value ([1]; 55° C., 0 min) is reported as 15.7%, the “Mean % Hydrolysis” value ([1]; 55° C., 15 min) is reported as 40.2% and the “Mean % Hydrolysis” value ([1]; 55° C., 30 min) is reported as 65.6%. The “Mean % Hydrolysis” value ([1]; 55° C., 45 min) was 76.6%, the “Mean % Hydrolysis” value ([1]; 55° C., 60 min) was 81.8% and the “Mean % Hydrolysis” value ([1]; 65° C., 0 min) was 15.7%. For the same compound, the “Mean % Hydrolysis” value ([1]; 65° C., 15 min) was 42.7%, the “Mean % Hydrolysis” value ([1]; 65° C., 30 min) was 64.1% and the “Mean % Hydrolysis” value ([1]; 65° C., 45 min) was 75.5%. For the same compound, the “Mean % Hydrolysis” value ([1]; 65° C., 60 min) was 79.8% and the “Cleavage in the presence of the IMCSzyme (in words)” value [1] was “take more time and heat to cleave”.
